Non-standard residues stand in square brackets, D forms with d. *: point of attachment. Ida = 2,2'-azanediyldiacetic acid, O=C(O)CNCC(=O)*; Ida(NHPal) = Ida cap bearing a palmityl amide; Dip = N[C@H](C(=O)O)C(c1ccccc1)c1ccccc1; β3hP = O=C(O)C[C@@H]1CCCN1; Ahx = NCCCCCC(=O)O
What was measured:
[1] = system: mouse; experiment: Activity at 20 nmoles/mouse: serum iron 4 hours after injection versus solvent (Tables 3 and 4); format: in vivo; design: key: Y: “Active” means that at 4 hours after injection serum iron in peptide-injected mice decreased statistically significantly (p < 0.05) compared to solvent-injected mice; Y*: Exhibits detectable and reproducible activity at about 50% lower than the most active compounds in Table 3 and 4; settings: Table 3, intraperitoneal
[2] = system: mouse; experiment: as above; format: in vivo; design: key: Y: “Active” means that at 4 hours after injection serum iron in peptide-injected mice decreased statistically significantly (p < 0.05) compared to solvent-injected mice; Y*: Exhibits detectable and reproducible activity at about 50% lower than the most active compounds in Table 3 and 4; settings: Table 3; subcutaneous
[3] = system: Hamp1-/- mice; experiment: Treatment study: 2 weeks daily PR65 in iron-overloaded hepcidin knockout mice; format: in vivo, mouse; settings: 50 nmoles daily s.c., 14 days
Experimental: To test the effect of PR65 on iron-loaded Hamp1^−/− mice (“treatment” studies), male mice were kept on the standard diet for their entire lifespan. Beginning at 12-14 weeks of age, 50 nmoles of PR65 or solvent was injected daily by the subcutaneous route for 2 weeks.
To assess the potential of mini-hepcidins as a standalone treatment for iron overload in subjects, 12 week old iron-overloaded hepcidin knockout mice were injected with 50 nmoles of PR65 daily for 14 days. […] In contrast to mice that were iron-depleted before PR65 administration, in mice with established iron overload serum iron levels were not decreased 24 hours after the last dose compared to solvent-treated mice (p=0.682) (FIG. 15B). […] The less than 24 hours duration of the hypoferremic effect of each 50 nmoles dose may have been due to the severe iron overload of the hepcidin knockout mice at this age. Accumulated hepatocyte iron could stimulate ferroportin synthesis and iron efflux from hepatocytes into plasma by relieving the inhibition of ferroportin translation by iron-regulatory proteins (IRPs) interacting with 5′ iron-regulatory element (5′ IRE) in the ferroportin mRNA, and possibly by other mechanisms.

[4] = system: Hamp1-/- mice; experiment: Prevention study: 2 weeks daily PR65 in iron-depleted hepcidin knockout mice on iron-loading diet
Experimental: PR65 was administered subcutaneously in 100 μl of SL220 solubilizer. Short-term studies were carried out for up to 48 hours to establish the effectiveness of a single injection. Long-term studies (“prevention” and “treatment”) were carried out for 2 weeks using daily injections and iron and hematological parameters measured 24 hours after the last injection.
To test the ability of PR65 to prevent, inhibit, or reduce iron loading (“prevention” studies), male Hamp1^−/− mice were iron-depleted by placing them on a low-iron diet (4 ppm iron) for 2 months starting at the age of 5-6 weeks. […] A group of mice was analyzed immediately after iron depletion (baseline group), and the remaining animals were switched to an iron-loading diet (standard chow, about 300 ppm Fe) and received daily subcutaneous injection of solvent or PR65 (20, 50 or 100 nmoles) for 2 weeks. All mouse diets were obtained from Harlan-Teklad (Madison, Wis.).
Serum iron and non-heme iron concentrations were determined as previously described (Ramos E, et al. (2011) Hepatology 53(4):1333-1341), using acid treatment followed by a colorimetric assay for iron quantitation (Genzyme, Cambridge, Mass.). […] Complete blood counts were obtained with a HemaVet blood analyzer (Drew Scientific, Oxford, Conn.).
After iron depletion, a group of mice was analyzed to establish the baseline iron and hematological parameters and the rest of the mice were placed on an iron-loading diet (300 ppm Fe) for 2 weeks while simultaneously receiving daily subcutaneous injections of solven only (control) or PR65 (20, 50 or 100 nmoles) in solvent. […] Hemoglobin concentrations were monitored to detect potential iron-restrictive effects of hepcidin excess on erythropoiesis.

[5] = system: mouse; experiment: Activity at 20 nmoles/mouse: serum iron 4 hours after injection versus solvent (Tables 3 and 4); format: in vivo; design: key: Y: “Active” means that the injection of the compound resulted in statistically significant (p < 0.05) lowering of serum iron compared to solvent injection when measured 4 hours after administration; Y*: detectable and reproducible activity but at least 50% lower than other active compounds in Table 4; settings: Table 4; intraperitoneal; serum iron 4 h after administration

In the case of `CCCCCCCCCCCCCCCC(=O)NCCCOCCOCCOCCCNC(=O)COCCOCCOCCNC(=O)C[C@H](Cc1ccccc1)NC(=O)[C@H](CCCNC(=N)N)NC(=O)[C@H](CS)NC(=O)[C@H](CCCNC(=N)N)NC(=O)C[C@@H]1CCCN1C(=O)[C@@H](NC(=O)[C@H](Cc1c[nH]cn1)NC(=O)[C@@H](NC(=O)CNCC(=O)O)[C@@H](C)O)C(c1ccccc1)c1ccccc1` [PR61], the “Active @ 20 nmoles/mouse IP” value [1] is reported as “Y (also” and the “Active @ 20 nmoles/mouse by SQ” value [2] is reported as “Y (also”.

With `CCCCCCCCCCCCCCCC(=O)NCCCOCCOCCOCCCNC(=O)C[C@H](Cc1ccccc1)NC(=O)[C@H](CCCNC(=N)N)NC(=O)[C@H](CS)NC(=O)[C@H](CCCNC(=N)N)NC(=O)C[C@@H]1CCCN1C(=O)[C@@H](NC(=O)[C@H](Cc1c[nH]cn1)NC(=O)[C@@H](NC(=O)CNCC(=O)O)[C@@H](C)O)C(c1ccccc1)c1ccccc1` [PR65] the decrease in hemoglobin [3] was 2 g/dL, the hemoglobin levels ([4]; 20 nmoles per day s.c., 2 weeks) was “did not change significantly” and the “reduction of hemoglobin concentration” value ([4]; 50 nmoles per day s.c., 2 weeks) was 3 g/dL. For the same molecule, the anemia ([4]; 100 nmoles daily, 2 weeks) was “moderately anemic”, the “reduction of hemoglobin concentration” value ([4]; 100 nmoles per day s.c., 2 weeks) was 5 g/dL and the maximal tolerated dose ([4]; daily s.c. dosing) was 50 nmol.

In the case of “PR82: SEQ ID NO: 101; Ida-T-H-Dpa-bhPro-R-C-R-W-Ahx-Ida(NHPal) (Ida-TH[Dip][β3hP]RCRW-{Ahx-Ida(NHPal)})”, the “Active @ 20 nmoles/mouse IP” value [5] is reported as “Y”.

Reference: patent US9896481B2, “Modified mini-hepcidin peptides and methods of using thereof” (priority 2011, dated 2018)
